Tests used:
Test in all cases: GR value, 72 h; higher = faster growth (1 = untreated, <0 = killing);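 further: breast cancer and non-malignant breast epithelial lines, nine half-log doses, viable cells counted by Hoechst and LIVE/DEAD dye imaging versus time-zero plates and DMSO controls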
R0-3306 = compound: C1=CC2=C(C=CC(=C2)C=C3C(=O)NC(=NCC4=CC=CS4)S3)N=C1 [R0-3306]
THZ-P1-2 = compound: CN(C)C/C=C/C(=O)NC1=CC=C(C=C1)C(=O)NC2=CC=CC(=C2)NC3=NC=NC(=C3)C4=CNC5=CC=CC=C54 [THZ-P1-2]
[1] = compound: CCCCOc1c(C(=O)c2c(F)cc(C)cc2F)c[nH]c2nncc1-2
[2] = compound: Cc1nn(C)c(COc2ccc(N3CCN(S(=O)(=O)N(C)C)CC3)cc2)c1-c1cccc2c(CCCOc3cccc4ccccc34)c(C(=O)O)n(CCN3CCOCC3)c12
Cediranib/AZD2171 = compound: COc1cc2c(Oc3ccc4[nH]c(C)cc4c3F)ncnc2cc1OCCCN1CCCC1 [Cediranib/AZD2171]
Tivantinib/ARQ197 = compound: O=C1NC(=O)[C@@H](c2cn3c4c(cccc24)CCC3)[C@@H]1c1c[nH]c2ccccc12 [Tivantinib/ARQ197]
Ceritinib/LDK378 = compound: Cc1cc(Nc2ncc(Cl)c(Nc3ccccc3S(=O)(=O)C(C)C)n2)c(OC(C)C)cc1C1CCNCC1 [Ceritinib/LDK378]
[3] = compound: COc1cccc(OCCCN)c1-c1cc(Nc2cnc(C#N)cn2)n[nH]1
AZD7762 = compound: NC(=O)Nc1cc(-c2cccc(F)c2)sc1C(=O)N[C@H]1CCCNC1 [AZD7762]
FMF-03-145-1 = compound: CCC(=O)Nc1ccc(C(=O)Nc2ccc(Nc3ncc4c(n3)N(C)c3ccc(C)cc3C(=O)N4C)cc2)cc1 [FMF-03-145-1]
Paclitaxel = compound: CC(=O)O[C@H]1C(=O)[C@@]2(C)[C@H]([C@H](OC(=O)c3ccccc3)[C@]3(O)C[C@H](OC(=O)[C@H](O)[C@@H](NC(=O)c4ccccc4)c4ccccc4)C(C)=C1C3(C)C)[C@]1(OC(C)=O)CO[C@@H]1C[C@@H]2O [Paclitaxel]
ABT-737 = compound: CN(C)CC[C@H](CSc1ccccc1)Nc1ccc(S(=O)(=O)NC(=O)c2ccc(N3CCN(Cc4ccccc4-c4ccc(Cl)cc4)CC3)cc2)cc1[N+](=O)[O-] [ABT-737]

AU565
GR value (R0-3306; 0.001 µM): 0.805 GR
GR value (R0-3306; 0.003162 µM): 0.756 GR
GR value (R0-3306; 0.01 µM): 0.522 GR
GR value (R0-3306; 0.03162 µM): 0.735 GR
GR value (R0-3306; 0.1 µM): 0.692 GR
GR value (R0-3306; 0.3162 µM): 0.711 GR
GR value (R0-3306; 1 µM): 0.548 GR
GR value (R0-3306; 3.162 µM): 0.375 GR
GR value (R0-3306; 10 µM): -0.214 GR
GR value (THZ-P1-2; 0.01 µM): 0.964 GR
GR value (THZ-P1-2; 0.03162 µM): 1.02 GR
GR value (THZ-P1-2; 0.1 µM): 0.979 GR
GR value (THZ-P1-2; 0.3162 µM): 0.842 GR
GR value (THZ-P1-2; 1 µM): 0.865 GR
GR value (THZ-P1-2; 3.162 µM): 0.881 GR
GR value (THZ-P1-2; 10 µM): -0.648 GR
GR value ([1]; 0.001 µM): 0.763 GR
GR value ([1]; 0.003162 µM): 0.828 GR
GR value ([1]; 0.01 µM): 0.656 GR
GR value ([1]; 0.03162 µM): 0.622 GR
GR value ([1]; 0.1 µM): 0.545 GR
GR value ([1]; 0.3162 µM): 0.489 GR
GR value ([1]; 1 µM): 0.372 GR
GR value ([1]; 3.162 µM): 0.0322 GR
GR value ([1]; 10 µM): -0.151 GR
GR value ([2]; 0.001 µM): 1.03 GR
GR value ([2]; 0.003162 µM): 1.04 GR
GR value ([2]; 0.01 µM): 1.09 GR
GR value ([2]; 0.03162 µM): 1.03 GR
GR value ([2]; 0.1 µM): 1.06 GR
GR value ([2]; 0.3162 µM): 1.05 GR
GR value ([2]; 1 µM): 1.03 GR
GR value ([2]; 3.162 µM): 1.05 GR
GR value ([2]; 10 µM): 0.613 GR
GR value (Cediranib/AZD2171; 0.001 µM): 1.04 GR
GR value (Cediranib/AZD2171; 0.003162 µM): 0.989 GR
GR value (Cediranib/AZD2171; 0.01 µM): 1.07 GR
GR value (Cediranib/AZD2171; 0.03162 µM): 1.07 GR
GR value (Cediranib/AZD2171; 0.1 µM): 1.06 GR
GR value (Cediranib/AZD2171; 0.3162 µM): 1.22 GR
GR value (Cediranib/AZD2171; 1 µM): 1.2 GR
GR value (Cediranib/AZD2171; 3.162 µM): 1.08 GR
GR value (Cediranib/AZD2171; 10 µM): 0.941 GR
GR value (Tivantinib/ARQ197; 0.001 µM): 1.08 GR
GR value (Tivantinib/ARQ197; 0.003162 µM): 1.04 GR
GR value (Tivantinib/ARQ197; 0.01 µM): 1.1 GR
GR value (Tivantinib/ARQ197; 0.03162 µM): 1.03 GR
GR value (Tivantinib/ARQ197; 0.1 µM): 0.841 GR
GR value (Tivantinib/ARQ197; 0.3162 µM): 0.191 GR
GR value (Tivantinib/ARQ197; 1 µM): -0.542 GR
GR value (Tivantinib/ARQ197; 3.162 µM): -0.468 GR
GR value (Tivantinib/ARQ197; 10 µM): -0.479 GR
GR value (Ceritinib/LDK378; 0.001 µM): 1.01 GR
GR value (Ceritinib/LDK378; 0.003162 µM): 0.971 GR
GR value (Ceritinib/LDK378; 0.01 µM): 1 GR
GR value (Ceritinib/LDK378; 0.03162 µM): 1.01 GR
GR value (Ceritinib/LDK378; 0.1 µM): 0.983 GR
GR value (Ceritinib/LDK378; 0.3162 µM): 0.993 GR
GR value (Ceritinib/LDK378; 1 µM): 0.887 GR
GR value (Ceritinib/LDK378; 3.162 µM): 0.479 GR
GR value ([3]; 10 pM): 0.889 GR
GR value ([3]; 31.6 pM): 0.97 GR
GR value ([3]; 0.0001 µM): 1.1 GR
GR value ([3]; 0.0003162 µM): 1.09 GR
GR value ([3]; 0.001 µM): 0.219 GR
GR value ([3]; 0.003162 µM): 0.112 GR
GR value ([3]; 0.01 µM): 0.0322 GR
GR value ([3]; 0.03162 µM): 0.0412 GR
GR value ([3]; 0.1 µM): 0.077 GR
GR value (AZD7762; 0.001 µM): 1.01 GR
GR value (AZD7762; 0.003162 µM): 1.01 GR
GR value (AZD7762; 0.01 µM): 1.08 GR
GR value (AZD7762; 0.03162 µM): 1.03 GR
GR value (AZD7762; 0.1 µM): 0.976 GR
GR value (AZD7762; 0.3162 µM): 0.756 GR
GR value (AZD7762; 1 µM): 0.41 GR
GR value (AZD7762; 3.162 µM): -0.179 GR
GR value (AZD7762; 10 µM): -0.57 GR
GR value (FMF-03-145-1; 0.0001 µM): 0.967 GR
GR value (FMF-03-145-1; 0.0003162 µM): 0.975 GR
GR value (FMF-03-145-1; 0.001 µM): 0.99 GR
GR value (FMF-03-145-1; 0.003162 µM): 0.971 GR
GR value (FMF-03-145-1; 0.01 µM): -0.215 GR
GR value (FMF-03-145-1; 0.03162 µM): -0.0803 GR
GR value (FMF-03-145-1; 0.1 µM): -0.163 GR
GR value (Paclitaxel; 0.0001 µM): 1.05 GR
GR value (Paclitaxel; 0.0003162 µM): 1.1 GR
GR value (Paclitaxel; 0.001 µM): 0.919 GR
GR value (Paclitaxel; 0.003162 µM): -0.244 GR
GR value (Paclitaxel; 0.01 µM): -0.459 GR
GR value (Paclitaxel; 0.03162 µM): -0.515 GR
GR value (Paclitaxel; 0.1 µM): -0.482 GR
GR value (Paclitaxel; 0.3162 µM): -0.467 GR
GR value (Paclitaxel; 1 µM): -0.475 GR
GR value (ABT-737; 0.001 µM): 0.926 GR
GR value (ABT-737; 0.003162 µM): 1.05 GR
GR value (ABT-737; 0.01 µM): 1.03 GR
GR value (ABT-737; 0.03162 µM): 1.04 GR
GR value (ABT-737; 0.1 µM): 1.04 GR
GR value (ABT-737; 0.3162 µM): 1.02 GR
GR value (ABT-737; 1 µM): 0.957 GR
GR value (ABT-737; 3.162 µM): 0.86 GR
GR value (ABT-737; 10 µM): 0.279 GR
